In patent publication US20250195551A1 (L4 BIO LLC, priority 2023, published 2025):

Key:
[1] = Excipient compatibility study; assay type: physicochemical; settings: for Chromatographic purity by HPLC (Assay) / Total Impurities % (excluding API impurities %): 40° C./75% RH
Method: An excipient compatibility study was initiated with selected excipients ranging from oils to surfactants based on equilibrium solubility results (Table 2). […] After solutions were prepared using a hand-held homogenizer (Model IKAT10 Ultra-Turrax), each excipient sample was aliquoted in amber vials, approximately 10% water was added in each excipient aliquot, and bench scale gel stripe OET-004037 was also made and added in a separate set of aliquot samples at approximately 1:1 w/w.
All samples were stored at 40° C./75% relative humidity (RH) condition (Model: Lunaire environmental chamber) and tested by developmental reversed phase HPLC method for Assay/Related Substances at T=0, 2 weeks, and 1 month.

[2] = target: 7-aminobutyric acid A (GABAA) receptor; settings: interaction with GABAA receptor in humans; cited from earlier work
[3] = Pharmacokinetic profiles of Ivermectin B1a in Sprague Dawley rat plasma after IV and oral administration; assay type: in vivo, Sprague Dawley rats; settings: Ivermectin B1a in SD rat plasma; single IV 2 mg/kg; fasting; male
Method: Thirty-six male Sprague Dawley rats were randomly assigned into four groups, with nine male rats in each group. All animals in all groups are fasted overnight prior to the experimental date.
Blood samples were collected from 6 of 9 animals per group at 0.5, 1, 2, 3, 4, 6, 8, 24, 72, 120, 168 hours post-dose.

[4] = target: neuronal alpha-7-nicotinic receptor (Homo sapiens, UniProt P36544); settings: interaction with neuronal alpha-7-nicotinic receptor in humans; cited from earlier work
glycine receptor (GlyR) = settings: interaction with glycine receptor (GlyR) in humans; cited from earlier work
[5] = Solubility determination of ivermectin in excipients
Method: The solubility assessments were performed by continually adding a known amount of the API into each individual excipient and letting the excipient reach solubility equilibrium via API saturation (visible solid observed). The experiments were conducted at ambient conditions (25° C.) and were left to mix on a stir plate at 500 RPM for at least 72 hours.

[6] = in Fractionated coconut oil, Sample: 10% water, T = 2 weeks
[7] = in Fractionated coconut oil, Sample: Control, T = 0
[8] = in Fractionated coconut oil, Sample: Control, T = 2 weeks
[9] = in Fractionated coconut oil, Sample: Gel Stripe (1:1 w/w), T = 2 weeks
[10] = in Labrasol ALF, Sample: 10% water, T = 1 months
[11] = in Labrasol ALF, Sample: 10% water, T = 2 weeks
[12] = in Labrasol ALF, Sample: Control, T = 0
[13] = in Labrasol ALF, Sample: Control, T = 1 months
[14] = in Labrasol ALF, Sample: Control, T = 2 weeks
[15] = in Labrasol ALF, Sample: Gel Stripe (1:1 w/w), T = 1 months
[16] = in Labrasol ALF, Sample: Gel Stripe (1:1 w/w), T = 2 weeks
[17] = in Maisine CC, Sample: 10% water, T = 1 months
[18] = in Maisine CC, Sample: 10% water, T = 2 weeks
[19] = in Maisine CC, Sample: Control, T = 0
[20] = in Maisine CC, Sample: Control, T = 1 months
[21] = in Maisine CC, Sample: Control, T = 2 weeks
[22] = in Maisine CC, Sample: Gel Stripe (1:1 w/w), T = 1 months
[23] = in Maisine CC, Sample: Gel Stripe (1:1 w/w), T = 2 weeks
[24] = in Masester E8120, Sample: 10% water, T = 1 months
[25] = in Masester E8120, Sample: 10% water, T = 2 weeks
[26] = in Masester E8120, Sample: Control, T = 0
[27] = in Masester E8120, Sample: Control, T = 1 months
[28] = in Masester E8120, Sample: Control, T = 2 weeks
[29] = in Masester E8120, Sample: Gel Stripe (1:1 w/w), T = 1 months
[30] = in Masester E8120, Sample: Gel Stripe (1:1 w/w), T = 2 weeks
[31] = in Oleic acid, Sample: 10% water, T = 2 weeks
[32] = in Oleic acid, Sample: Control, T = 0
[33] = in Oleic acid, Sample: Control, T = 2 weeks
[34] = in Oleic acid, Sample: Gel Stripe (1:1 w/w), T = 2 weeks
[35] = in PEG 400, Sample: 10% water, T = 2 weeks
[36] = in PEG 400, Sample: Control, T = 0
[37] = in PEG 400, Sample: Control, T = 2 weeks
[38] = in PEG 400, Sample: Gel Stripe (1:1 w/w), T = 2 weeks
[39] = in Tween 80, Sample: 10% water, T = 1 months
[40] = in Tween 80, Sample: 10% water, T = 2 weeks
[41] = in Tween 80, Sample: Control, T = 0
[42] = in Tween 80, Sample: Control, T = 1 months
[43] = in Tween 80, Sample: Control, T = 2 weeks
[44] = in Tween 80, Sample: Gel Stripe (1:1 w/w), T = 1 months
[45] = in Tween 80, Sample: Gel Stripe (1:1 w/w), T = 2 weeks
[46] = in Vitamin E TPGS, Sample: 10% water, T = 1 months
[47] = in Vitamin E TPGS, Sample: 10% water, T = 2 weeks
[48] = in Vitamin E TPGS, Sample: Control, T = 0
[49] = in Vitamin E TPGS, Sample: Control, T = 1 months
[50] = in Vitamin E TPGS, Sample: Control, T = 2 weeks
[51] = in Vitamin E TPGS, Sample: Gel Stripe (1:1 w/w), T = 1 months
[52] = in Vitamin E TPGS, Sample: Gel Stripe (1:1 w/w), T = 2 weeks

neuronal alpha-7-nicotinic receptor, sequence (P36544 23-502): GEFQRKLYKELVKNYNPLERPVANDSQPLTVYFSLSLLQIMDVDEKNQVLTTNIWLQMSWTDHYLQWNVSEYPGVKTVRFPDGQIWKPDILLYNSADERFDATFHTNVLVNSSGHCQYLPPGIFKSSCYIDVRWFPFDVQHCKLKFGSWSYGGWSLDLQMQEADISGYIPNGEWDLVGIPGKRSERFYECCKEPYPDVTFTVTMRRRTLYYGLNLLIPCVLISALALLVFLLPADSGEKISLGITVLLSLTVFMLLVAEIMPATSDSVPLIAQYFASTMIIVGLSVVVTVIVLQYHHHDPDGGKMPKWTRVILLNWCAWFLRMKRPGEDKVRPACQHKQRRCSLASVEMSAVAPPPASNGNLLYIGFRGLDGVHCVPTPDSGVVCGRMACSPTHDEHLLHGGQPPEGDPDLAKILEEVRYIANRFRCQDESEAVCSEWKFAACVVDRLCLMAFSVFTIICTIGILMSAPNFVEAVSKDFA

ivermectin
Chemical compatibility with the API ([1]; PEG 400 as co-solvent): poor chemical compatibility
Chemical compatibility with the API ([1]; Vitamin E TPGS compared with Tween 80 and Labrasol ALF (surfactants)): best chemical compatibility
Chromatographic purity by HPLC (Assay) [1, 6]: 97.83 % area
Total Impurities % (excluding API impurities %) [1, 6]: <LOQ
Chromatographic purity by HPLC (Assay) [1, 7]: 95.61 % area
Total Impurities % (excluding API impurities %) [1, 7]: <LOQ
Chromatographic purity by HPLC (Assay) [1, 8]: 97.94 % area
Total Impurities % (excluding API impurities %) [1, 8]: <LOQ
Chromatographic purity by HPLC (Assay) [1, 9]: 94.42 % area
Total Impurities % (excluding API impurities %) [1, 9]: 3.28 % adjusted area
Chromatographic purity by HPLC (Assay) [1, 10]: 89.91 % area
Total Impurities % (excluding API impurities %) [1, 10]: 8.76 % adjusted area
Chromatographic purity by HPLC (Assay) [1, 11]: 93.91 % area
Total Impurities % (excluding API impurities %) [1, 11]: 3.46 % adjusted area
Chromatographic purity by HPLC (Assay) [1, 12]: 97.74 % area
Total Impurities % (excluding API impurities %) [1, 12]: <LOQ
Chromatographic purity by HPLC (Assay) [1, 13]: 81.35 % area
Total Impurities % (excluding API impurities %) [1, 13]: 20.49 % adjusted area
Chromatographic purity by HPLC (Assay) [1, 14]: 89.16 % area
Total Impurities % (excluding API impurities %) [1, 14]: 8.67 % adjusted area
Chromatographic purity by HPLC (Assay) [1, 15]: 96.49 % area
Total Impurities % (excluding API impurities %) [1, 15]: 1.06 % adjusted area
Chromatographic purity by HPLC (Assay) [1, 16]: 97.11 % area
Total Impurities % (excluding API impurities %) [1, 16]: 0.30 % adjusted area
Chromatographic purity by HPLC (Assay) [1, 17]: 96.83 % area
Total Impurities % (excluding API impurities %) [1, 17]: 0.69 % adjusted area
Chromatographic purity by HPLC (Assay) [1, 18]: 95.90 % area
Total Impurities % (excluding API impurities %) [1, 18]: 0.45 % adjusted area
Chromatographic purity by HPLC (Assay) [1, 19]: 97.13 % area
Total Impurities % (excluding API impurities %) [1, 19]: 0.58 % adjusted area
Chromatographic purity by HPLC (Assay) [1, 20]: 96.82 % area
Total Impurities % (excluding API impurities %) [1, 20]: 0.71 % adjusted area
Chromatographic purity by HPLC (Assay) [1, 21]: 96.00 % area
Total Impurities % (excluding API impurities %) [1, 21]: 0.35 % adjusted area
Chromatographic purity by HPLC (Assay) [1, 22]: 96.94 % area
Total Impurities % (excluding API impurities %) [1, 22]: 0.58 % adjusted area
Chromatographic purity by HPLC (Assay) [1, 23]: 96.15 % area
Total Impurities % (excluding API impurities %) [1, 23]: 0.33 % adjusted area
Chromatographic purity by HPLC (Assay) [1, 24]: 91.68 % area
Total Impurities % (excluding API impurities %) [1, 24]: 6.60 % adjusted area
Chromatographic purity by HPLC (Assay) [1, 25]: 95.11 % area
Total Impurities % (excluding API impurities %) [1, 25]: 2.27 % adjusted area
Chromatographic purity by HPLC (Assay) [1, 26]: 97.58 % area
Total Impurities % (excluding API impurities %) [1, 26]: 0.17 % adjusted area
Chromatographic purity by HPLC (Assay) [1, 27]: 97.06 % area
Total Impurities % (excluding API impurities %) [1, 27]: 0.45 % adjusted area
Chromatographic purity by HPLC (Assay) [1, 28]: 96.81 % area
Total Impurities % (excluding API impurities %) [1, 28]: 0.58 % adjusted area
Chromatographic purity by HPLC (Assay) [1, 29]: 97.31 % area
Total Impurities % (excluding API impurities %) [1, 29]: 0.18 % adjusted area
Chromatographic purity by HPLC (Assay) [1, 30]: 97.35 % area
Total Impurities % (excluding API impurities %) [1, 30]: 0.11 % adjusted area
Chromatographic purity by HPLC (Assay) [1, 31]: 86.02 % area
Total Impurities % (excluding API impurities %) [1, 31]: 9.89 % adjusted area
Chromatographic purity by HPLC (Assay) [1, 32]: 99.60 % area
Total Impurities % (excluding API impurities %) [1, 32]: <LOQ
Chromatographic purity by HPLC (Assay) [1, 33]: 83.55 % area
Total Impurities % (excluding API impurities %) [1, 33]: 17.27 % adjusted area
Chromatographic purity by HPLC (Assay) [1, 34]: 83.73 % area
Total Impurities % (excluding API impurities %) [1, 34]: 11.82 % adjusted area
Chromatographic purity by HPLC (Assay) [1, 35]: 94.35 % area
Total Impurities % (excluding API impurities %) [1, 35]: 3.15 % adjusted area
Chromatographic purity by HPLC (Assay) [1, 36]: 97.58 % area
Total Impurities % (excluding API impurities %) [1, 36]: 0.10 % adjusted area
Chromatographic purity by HPLC (Assay) [1, 37]: 89.36 % area
Total Impurities % (excluding API impurities %) [1, 37]: 8.54 % adjusted area
Chromatographic purity by HPLC (Assay) [1, 38]: 96.92 % area
Total Impurities % (excluding API impurities %) [1, 38]: 0.50 % adjusted area
Chromatographic purity by HPLC (Assay) [1, 39]: 91.18 % area
Total Impurities % (excluding API impurities %) [1, 39]: 6.94 % adjusted area
Chromatographic purity by HPLC (Assay) [1, 40]: 93.02 % area
Total Impurities % (excluding API impurities %) [1, 40]: 3.53 % adjusted area
Chromatographic purity by HPLC (Assay) [1, 41]: 97.53 % area
Total Impurities % (excluding API impurities %) [1, 41]: 0.16 % adjusted area
Chromatographic purity by HPLC (Assay) [1, 42]: 88.45 % area
Total Impurities % (excluding API impurities %) [1, 42]: 10.55 % adjusted area
Chromatographic purity by HPLC (Assay) [1, 43]: 91.87 % area
Total Impurities % (excluding API impurities %) [1, 43]: 4.86 % adjusted area
Chromatographic purity by HPLC (Assay) [1, 44]: 93.51 % area
Total Impurities % (excluding API impurities %) [1, 44]: 4.22 % adjusted area
Chromatographic purity by HPLC (Assay) [1, 45]: 93.97 % area
Total Impurities % (excluding API impurities %) [1, 45]: 2.43 % adjusted area
Chromatographic purity by HPLC (Assay) [1, 46]: 97.46 % area
Total Impurities % (excluding API impurities %) [1, 46]: <LOQ
Chromatographic purity by HPLC (Assay) [1, 47]: 96.99 % area
Total Impurities % (excluding API impurities %) [1, 47]: 0.42 % adjusted area
Chromatographic purity by HPLC (Assay) [1, 48]: 97.74 % area
Total Impurities % (excluding API impurities %) [1, 48]: <LOQ
Chromatographic purity by HPLC (Assay) [1, 49]: 97.37 % area
Total Impurities % (excluding API impurities %) [1, 49]: 0.11 % adjusted area
Chromatographic purity by HPLC (Assay) [1, 50]: 97.43 % area
Total Impurities % (excluding API impurities %) [1, 50]: <LOQ
Chromatographic purity by HPLC (Assay) [1, 51]: 97.74 % area
Total Impurities % (excluding API impurities %) [1, 51]: <LOQ
Chromatographic purity by HPLC (Assay) [1, 52]: 97.50 % area
Total Impurities % (excluding API impurities %) [1, 52]: <LOQ
Chemical compatibility with the API ([1]; oily vehicles including Maisine CC, fractionated coconut oil, and oleic acid): good chemical compatibility
EC50 [2]: ~920 nM
AUC(0-t) [3]: 8259.31 ± 1032.95 ng·h/mL
AUC(0-∞) [3]: 8273.53 ng·h/mL
Cmax [3]: 1722.67 ng/mL
MRT(0-t) [3]: 10.58 h
MRT(0-∞) [3]: 10.81 h
T1/2 [3]: 14.82 ± 0.72 h
Tmax [3]: 0.50 h
EC50 [4]: ~30000 nM
EC50 (glycine receptor (GlyR)): ~1200 nM
Solubility ([5]; in Capryol 90, 25° C.): 150.92 mg/g
Solubility ([5]; in Fractionated Coconut oil, 25° C.): 16.55 mg/g
Solubility ([5]; in Glycerin, 25° C.): <0.1 mg/g
Solubility ([5]; in Kolliphor EL, 25° C.): 95.85 mg/g
Solubility ([5]; in Labrafil M 2125 CS, 25° C.): 35.32 mg/g
Solubility ([5]; in Labrasol ALF, 25° C.): 126.36 mg/g
Solubility ([5]; in LauroglycolTM FCC, 25° C.): 71.96 mg/g
Solubility ([5]; in Maisine CC, 25° C.): 60.17 mg/g
Solubility ([5]; in Masester E8120, 25° C.): 164.06 mg/g
Solubility ([5]; in Medium Chain Triglyceride, 25° C.): 16.49 mg/g
Solubility ([5]; in Oleic acid, 25° C.): 48.58 mg/g
Solubility ([5]; in Olive oil, 25° C.): 4.71 mg/g
Solubility ([5]; in PEG 400, 25° C.): 112.92 mg/g
Solubility ([5]; in Propylene glycol, 25° C.): 25.61 mg/g
Solubility ([5]; in Soybean oil, 25° C.): 6.72 mg/g
Solubility ([5]; in Span 20, 25° C.): 97.66 mg/g
Solubility ([5]; in Span 80, 25° C.): 54.04 mg/g
Solubility ([5]; in Triacetin, 25° C.): 58.75 mg/g
Solubility ([5]; in Tween 80, 25° C.): 88.26 mg/g
Solubility ([5]; in Vitamin E TPGS, table title 25° C., text: conducted at 40° C.): 82.98 mg/g
